Experimental data reported in US7601336B2, “Pharmaceutical aerosol composition” (Chiesi Farmaceutici S.p.A., priority 1997, dated 2009).
Where two headings read alike, the source gives them in different places. Blank lines part the entries; values can stand above or below the compound they belong to.

How the values were obtained:
[1] = Aerodynamic particle size distribution by Andersen Cascade Impactor (ACI), ten cumulative actuations, drug on plates by HPLC; format: physicochemical
Protocol: The aerosol compositions of the invention described below were prepared by the following method. The required components of a composition were added into a can in the following order: drug, non-volatile additive, absolute ethanol. After crimping of the valve on to the can, the propellant was added through the valve. The weight gain of the can after each component was added was recorded to allow the percentage, by weight, of each component in the formulation to be calculated. The aerodynamic particle size distribution of each formulation was characterized using a Multistage Cascade Impactor according to the procedure described in the European Pharmacopoeia 2nd edition, 1995, part V.5.9.1. pages 15-17. In this specific case an Andersen Cascade Impactor (ACI) was used. Results represented were obtained from ten cumulative actuations or a formulation. Deposition of the drug on each ACI plate was determined by high pressure liquid chromatography. The mass median aerodynamic diameter (MMAD) and geometric standard deviation (GSD) were calculated from plots of the cumulative percentage undersize of drug collected on each ACI plate (probit scale), against the upper cut off diameter for each respective ACI plate (log10 scale). The fine particle dose of each formulation was determined from the mass of drug collected on Stages 2 through to Filter (<5.8 μm) divided by the number of actuations per experiment.

[2] = BDP as a solution in HFA 134a (formulations of EP 0553298), reported in literature; cited from earlier work
[3] = Flunisolide 50 mg/10 ml, ethanol 15.0 ± 0.1%, HFA 134a, menthol 0% (w/w), glycerol 0% (w/w), actuator orifice 0.30 mm
[4] = Flunisolide 50 mg/10 ml, ethanol 15.0 ± 0.1%, HFA 134a, menthol 0.4% (w/w), glycerol 0.9% (w/w), actuator orifice 0.30 mm
[5] = Salbutamol base 20 mg/10 ml, ethanol 15% (w/w), HFA 134a, glycerol 0% (w/w), oleic acid 0.35% (w/w), actuator orifice 0.30 mm
[6] = Salbutamol base 20 mg/10 ml, ethanol 15% (w/w), HFA 134a, glycerol 1.3% (w/w), oleic acid 0.36% (w/w), actuator orifice 0.30 mm
[7] = combination BDP 50 mg/10 ml + Salbutamol base 20 mg/10 ml, ethanol 15.4 ± 0.2% (w/w), HFA 134a, glycerol 0%, oleic acid 0%, actuator exit orifice 0.33 mm
[8] = combination BDP 50 mg/10 ml + Salbutamol base 20 mg/10 ml, ethanol 15.4 ± 0.2% (w/w), HFA 134a, glycerol 0%, oleic acid 0.3%, actuator exit orifice 0.33 mm
[9] = combination BDP 50 mg/10 ml + Salbutamol base 20 mg/10 ml, ethanol 15.4 ± 0.2% (w/w), HFA 134a, glycerol 0%, oleic acid 1.3%, actuator exit orifice 0.30 mm
[10] = combination BDP 50 mg/10 ml + Salbutamol base 20 mg/10 ml, ethanol 15.4 ± 0.2% (w/w), HFA 134a, glycerol 1.2%, oleic acid 0.3%, actuator exit orifice 0.30 mm
[11] = BDP 10 mg/10 ml, ethanol 7.9%, HFA 134a, actuator orifice 0.25 mm
[12] = BDP 10 mg/10 ml, ethanol 12.9-13.0%, HFA 134a, actuator orifice 0.25 mm
[13] = BDP 10 mg/10 ml, ethanol 12.9 ± 0.1% (w/w), HFA 134a, propylene glycol 0.0% (w/w), actuator orifice 0.42 mm
[14] = BDP 10 mg/10 ml, ethanol 12.9 ± 0.1% (w/w), HFA 134a, propylene glycol 1.1% (w/w), actuator orifice 0.42 mm
[15] = BDP 10 mg/10 ml, ethanol 12.9 ± 0.1% (w/w), HFA 134a, propylene glycol 3.2% (w/w), actuator orifice 0.42 mm
[16] = BDP 10 mg/10 ml, ethanol 12.9 ± 0.1% (w/w), HFA 134a, propylene glycol 6.8% (w/w), actuator orifice 0.42 mm
[17] = BDP 10 mg/10 ml, ethanol 13.6%, H2O 0.5%, HFA 134a, actuator orifice 0.33 mm
[18] = BDP 10 mg/10 ml, ethanol 13.7%, H2O 0.1%, HFA 134a, actuator orifice 0.33 mm
[19] = BDP 20 mg/10 ml, ethanol 7.9%, HFA 134a, actuator orifice 0.25 mm
[20] = BDP 20 mg/10 ml, ethanol 13.0%, HFA 134a, actuator orifice 0.25 mm
[21] = BDP 50 mg/10 ml, ethanol 14.9%, H2O 0.1%, HFA 134a, actuator orifice 0.33 mm
[22] = BDP 50 mg/10 ml, ethanol 14.9%, H2O 0.5%, HFA 134a, actuator orifice 0.33 mm
[23] = BDP 50 mg/10 ml, ethanol 14.9 ± 0.1% (w/w), HFA 134a, PEG 0.0% (w/w), actuator orifice 0.33 mm
[24] = BDP 50 mg/10 ml, ethanol 14.9 ± 0.1% (w/w), HFA 134a, PEG 400 1.1% (w/w), actuator orifice 0.33 mm
[25] = BDP 50 mg/10 ml, ethanol 14.9 ± 0.1% (w/w), HFA 134a, PEG 8000 1.0% (w/w), actuator orifice 0.33 mm
[26] = BDP 50 mg/10 ml, ethanol 15.0 ± 0.2% (w/w), HFA 134a, glycerol 0.0% (w/w), actuator orifice 0.25 mm
[27] = BDP 50 mg/10 ml, ethanol 15.0 ± 0.2% (w/w), HFA 134a, glycerol 0.0% (w/w), actuator orifice 0.33 mm
[28] = BDP 50 mg/10 ml, ethanol 15.0 ± 0.2% (w/w), HFA 134a, glycerol 1.0% (w/w), actuator orifice 0.25 mm
[29] = BDP 50 mg/10 ml, ethanol 15.0 ± 0.2% (w/w), HFA 134a, glycerol 1.0% (w/w), actuator orifice 0.33 mm
[30] = BDP 50 mg/10 ml, ethanol 15.0 ± 0.2% (w/w), HFA 134a, glycerol 1.3% (w/w), actuator orifice 0.25 mm
[31] = BDP 50 mg/10 ml, ethanol 15.0 ± 0.2% (w/w), HFA 134a, glycerol 1.3% (w/w), actuator orifice 0.33 mm
[32] = BDP 50 mg/10 ml, ethanol 15.0 ± 0.2% (w/w), HFA 134a, glycerol 1.6% (w/w), actuator orifice 0.25 mm
[33] = BDP 50 mg/10 ml, ethanol 15.0 ± 0.2% (w/w), HFA 134a, glycerol 1.6% (w/w), actuator orifice 0.33 mm
[34] = BDP 50 mg/10 ml, ethanol 15.0 ± 0.2% (w/w), HFA 227 fill to 12 ml, 0% (w/w) glycerol, actuator orifice 0.33 mm
[35] = BDP 50 mg/10 ml, ethanol 15.0 ± 0.2% (w/w), HFA 227 fill to 12 ml, 1.42% (w/w) glycerol, actuator orifice 0.33 mm
[36] = BDP 50 mg/10 ml, ethanol 15.2 ± 0.4% (w/w), HFA 134a, propylene glycol 0.0% (w/w), actuator orifice 0.42 mm
[37] = BDP 50 mg/10 ml, ethanol 15.2 ± 0.4% (w/w), HFA 134a, propylene glycol 0.7% (w/w), actuator orifice 0.42 mm
[38] = BDP 50 mg/10 ml, ethanol 15.2 ± 0.4% (w/w), HFA 134a, propylene glycol 2.8% (w/w), actuator orifice 0.42 mm
[39] = BDP 50 mg/10 ml, ethanol 15.2 ± 0.4% (w/w), HFA 134a, propylene glycol 6.3% (w/w), actuator orifice 0.42 mm

Emitted dose [1, 3]: 217.1 µg
Fine Particle Dose (FPD) [1, 3]: 76.85 µg
GSD [1, 3]: 2.15
MMAD [1, 3]: 1.8 µm
Emitted dose [1, 4]: 221.6 µg
Fine Particle Dose (FPD) [1, 4]: 77.84 µg
GSD [1, 4]: 2.1
MMAD [1, 4]: 2.9 µm
SMILES: CC1(C)O[C@@H]2C[C@H]3[C@@H]4C[C@H](F)C5=CC(=O)C=C[C@]5(C)[C@H]4[C@@H](O)C[C@]3(C)[C@]2(C(=O)CO)O1 [Flunisolide]

Emitted dose [1, 5]: 85.8 µg
FPD [1, 5]: 29.1 µg
GSD [1, 5]: 2.3
MMAD [1, 5]: 1.7 μm
Emitted dose [1, 6]: 92.0 µg
FPD [1, 6]: 25.2 µg
GSD [1, 6]: 2.4
MMAD [1, 6]: 2.8 μm
Emitted dose [1, 7]: 82.5 µg
FPD [1, 7]: 26.9 µg
GSD [1, 7]: 2.2
MMAD [1, 7]: 1.7 μm
Emitted dose [1, 8]: 84.8 µg
FPD [1, 8]: 24.0 µg
GSD [1, 8]: 2.6
MMAD [1, 8]: 2.0 μm
Emitted dose [1, 9]: 85.9 µg
FPD [1, 9]: 23.9 µg
GSD [1, 9]: 2.1
MMAD [1, 9]: 2.4 μm
Emitted dose [1, 10]: 85.3 µg
FPD [1, 10]: 25.1 µg
GSD [1, 10]: 2.0
MMAD [1, 10]: 3.0 μm
SMILES: CC(C)(C)NCC(O)c1ccc(O)c(CO)c1 (stereo not drawn) [Salbutamol base]

Fine particle dose [1, 11]: 31.1 µg
MMAD ± GSD [1, 11]: 0.8 ± 1.8
Mean emitted dose [1, 11]: 44.7 µg
Fine particle dose [1, 12]: 24.5 µg
MMAD ± GSD [1, 12]: 0.9 ± 2.0
Mean emitted dose [1, 12]: 45.1 µg
Fine particle dose [1, 13]: 10.3 µg
MMAD ± GSD [1, 13]: 1.1 ± 2.3 μm
Mean emitted dose [1, 13]: 41.8 µg
Fine particle dose [1, 14]: 9.3 µg
MMAD ± GSD [1, 14]: 1.6 ± 3.4 μm
Mean emitted dose [1, 14]: 44.0 µg
Fine particle dose [1, 15]: 7.3 µg
MMAD ± GSD [1, 15]: 2.9 ± 4.1 μm
Mean emitted dose [1, 15]: 43.6 µg
Fine particle dose [1, 16]: 4.9 µg
MMAD ± GSD [1, 16]: 4.6 ± 3.9 μm
Mean emitted dose [1, 16]: 44.9 µg
Fine particle dose [1, 17]: 12.7 µg
MMAD ± GSD [1, 17]: 1.0 ± 2.1 μm
Mean emitted dose [1, 17]: 42.9 µg
Fine particle dose [1, 18]: 14.9 µg
MMAD ± GSD [1, 18]: 1.0 ± 2.2 μm
Mean emitted dose [1, 18]: 43.2 µg
Fine particle dose [1, 19]: 63.1 µg
MMAD ± GSD [1, 19]: 1.0 ± 1.8
Mean emitted dose [1, 19]: 84.8 µg
Fine particle dose [1, 20]: 46.2 µg
MMAD ± GSD [1, 20]: 1.0 ± 1.9
Mean emitted dose [1, 20]: 87.6 µg
Fine particle dose [1, 21]: 67.4 µg
MMAD ± GSD [1, 21]: 1.8 ± 2.2 μm
Mean emitted dose [1, 21]: 222.1 µg
Fine particle dose [1, 22]: 60.2 µg
MMAD ± GSD [1, 22]: 1.7 ± 2.2 μm
Mean emitted dose [1, 22]: 215.1 µg
Fine particle dose [1, 23]: 67.4 µg
MMAD ± GSD [1, 23]: 1.8 ± 2.2 μm
Mean emitted dose [1, 23]: 222.1 µg
Fine particle dose [1, 24]: 55.6 µg
MMAD ± GSD [1, 24]: 2.5 ± 2.2 μm
Mean emitted dose [1, 24]: 218.9 µg
Fine particle dose [1, 25]: 55.6 µg
MMAD ± GSD [1, 25]: 2.5 ± 2.2 μm
Mean emitted dose [1, 25]: 215.0 µg
Fine particle dose [1, 26]: 105.9 µg
MMAD ± GSD [1, 26]: 1.4 ± 1.9 μm
Mean emitted dose [1, 26]: 205.8 µg
Fine particle dose [1, 27]: 67.4 µg
MMAD ± GSD [1, 27]: 1.8 ± 2.2 μm
Mean emitted dose [1, 27]: 222.1 µg
Fine particle dose [1, 28]: 94.4 µg
MMAD ± GSD [1, 28]: 2.4 ± 2.0 μm
Mean emitted dose [1, 28]: 218.3 µg
Fine particle dose [1, 29]: 55.9 µg
MMAD ± GSD [1, 29]: 2.8 ± 2.2 μm
Mean emitted dose [1, 29]: 227.9 µg
Fine particle dose [1, 30]: 100.3 µg
MMAD ± GSD [1, 30]: 2.6 ± 2.0 μm
Mean emitted dose [1, 30]: 220.8 µg
Fine particle dose [1, 31]: 54.3 µg
MMAD ± GSD [1, 31]: 3.1 ± 2.3 μm
Mean emitted dose [1, 31]: 228.4 µg
Fine particle dose [1, 32]: 96.6 µg
MMAD ± GSD [1, 32]: 2.7 ± 2.0 μm
Mean emitted dose [1, 32]: 228.0 µg
Fine particle dose [1, 33]: 50.9 µg
MMAD ± GSD [1, 33]: 3.1 ± 2.3 μm
Mean emitted dose [1, 33]: 231.7 µg
FPD [1, 34]: 62.1 µg
GSD [1, 34]: 2.6
MMAD [1, 34]: 2.2 μm
Mean emitted dose [1, 34]: 221.25 µg
FPD [1, 35]: 43.5 µg
GSD [1, 35]: 2.4
MMAD [1, 35]: 4.1 μm
Mean emitted dose [1, 35]: 230.5 µg
Fine particle dose [1, 36]: 41.6 µg
MMAD ± GSD [1, 36]: 1.7 ± 2.3 μm
Mean emitted dose [1, 36]: 209.1 µg
Fine particle dose [1, 37]: 41.1 µg
MMAD ± GSD [1, 37]: 2.1 ± 2.7 μm
Mean emitted dose [1, 37]: 218.4 µg
Fine particle dose [1, 38]: 32.1 µg
MMAD ± GSD [1, 38]: 3.3 ± 3.2 μm
Mean emitted dose [1, 38]: 204.2 µg
Fine particle dose [1, 39]: 25.2 µg
MMAD ± GSD [1, 39]: 4.4 ± 3.8 μm
Mean emitted dose [1, 39]: 242.6 µg
Emitted dose [1, 7]: 208.9 µg
FPD [1, 7]: 67.8 µg
GSD [1, 7]: 2.4
MMAD [1, 7]: 1.7 μm
Emitted dose [1, 8]: 212.7 µg
FPD [1, 8]: 60.6 µg
GSD [1, 8]: 2.3
MMAD [1, 8]: 2.2 μm
Emitted dose [1, 9]: 212.5 µg
FPD [1, 9]: 58.5 µg
GSD [1, 9]: 2.2
MMAD [1, 9]: 2.4 μm
Emitted dose [1, 10]: 210.8 µg
FPD [1, 10]: 63.3 µg
GSD [1, 10]: 2.1
MMAD [1, 10]: 2.9 μm
SMILES: CCC(=O)OCC(=O)[C@@]1(OC(=O)CC)[C@@H](C)C[C@H]2[C@@H]3CCC4=CC(=O)C=C[C@]4(C)[C@@]3(Cl)[C@@H](O)C[C@@]21C [BDP, beclomethasone dipropionate]
MMAD [2]: 1.1 μm
